From US7132231B2, “Fluorescence polarization method for determining viral inhibitors” (priority 2001, dated 2006)

Experiments:
[1] = molecular target: T1, Pol/UL42 interaction (Oregon Green-peptide E / MBP-UL42Δ340) (Human herpesvirus 1, UniProt P10226); experiment: Fluorescence polarization (FP) assay of Pol peptide/UL42 binding; design: species or system herpes simplex virus; details: for dose dependent change in the FP signal: serial dilution, FIG. 3
T1 construct: made in house; host or cells: E. coli BL21(de3)pLysS (UL42Δ340 fusion); peptide E synthetic
T1 sequence (P10226 1-339, stated change not applied): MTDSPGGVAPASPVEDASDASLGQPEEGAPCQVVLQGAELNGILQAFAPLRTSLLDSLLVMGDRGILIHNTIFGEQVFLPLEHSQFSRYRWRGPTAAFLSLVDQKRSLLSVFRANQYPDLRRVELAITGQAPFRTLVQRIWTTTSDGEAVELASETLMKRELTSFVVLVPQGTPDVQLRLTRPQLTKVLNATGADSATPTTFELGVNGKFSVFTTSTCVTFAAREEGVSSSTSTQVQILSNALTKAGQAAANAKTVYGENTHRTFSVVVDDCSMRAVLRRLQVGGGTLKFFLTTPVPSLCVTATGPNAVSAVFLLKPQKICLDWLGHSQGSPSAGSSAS
Protocol: Peptide probe and MBP-UL42. A peptide comprising the 18 C-terminal amino acids of HSV Pol (peptide E) was synthesized, N-terminally labeled with the pentafluorofluorescein-derivative Oregon Green 514 (Molecular Probes) and HPLC-purified. A truncated version of UL42 (UL42Δ340) was expressed in BL21(de3)pLysS E.coli as maltose binding protein fusion as described [Bridges et al. 2001] and purified over an amylose column (New England Biolabs). […] After elution with 10 mM maltose in 50 mM TrisHCl, 1 mM DTT, 0.5 mM EDTA, 4% Glycerol, 200 mM NaCl and Complete™ protease inhibitors (Roche Molecular Biochemicals), the protein was concentrated when necessary and stored at −80° C. until further use. After thawing, the purification buffer was exchanged to low fluorescent grade reagents (PanVera) and maltose was removed simultaneously using 10-DG Bio-Gel columns (BioRad). Fluorescence polarization assays. 1 nM of Oregon Green-peptide E was added to 7 uM MBP-UL42Δ340 and kept on ice until the mix was distributed into black 384-well plates (LJL Biosystems) in a total volume of 20 ul per well. The buffer conditions were 50 mM TrisHCl pH 7.5, 1 mM DTT, 0.5 mM EDTA, 150 mM NaCl, 4% Glycerol and 100 ug ml^−1 bovine gamma globulin. All chemicals were low fluorescent grade (PanVera).
Using this assay, the 16,320 compound Chembridge library that had been purchased by the Harvard Institute of Chemistry and Cell Biology (ICBB) was screened. Small molecules (5 mg ml^−1 in DMSO; ChemBridge) were screened using 384-pin arrays (Genetix), and 40 nl of each compound was transferred into every well. After incubation between 5 and 45 minutes at room temperature, the FP values were determined in the Analyst plate reader (LJL Biosystems). Chemicals for further testing were obtained from ChemBridge.
DNA polymerase long-chain synthesis assay. Compounds which elicited a decrease in the fluorescence polarization, when compared to control values, were tested for the ability to inhibit long-chain DNA synthesis via inhibition of polymerase subunit assembly [Digard et al. 1995; Bridges et al. 2001] using a poly-A template (Amersham Pharmacia) and an oligo-dT primer (Roche Molecular Biochemicals) on which Pol alone adds only a few bases. Reaction mixtures (50 mM Tris-HCl pH 7.5, 100 mM ammonium sulfate, 3 mM MgCl2, 0.1 mM EDTA, 1 mM DTT, 4% Glycerol, 40 ug ml^−1 BSA, 100 ug ml^−1 primer/template, 50 uM α-^32P-TTP (111 TBq/mmol; NEN Life Science products)), contained 200 fmol of HSV Pol ([Weisshart et al. 1994]), 400 fmol of HSV MBP-UL42 and varying amounts of compound in a final volume of 25 ul. Reactions were carried out at 37° C. for 5 minutes and stopped by adding 5 ul of alkaline loading buffer (2mM EDTA, 50mM NaOH, 2.5% glycerol, 0.025% bromocresol green) and placing them on ice and were then loaded onto an 4% alkaline agarose gel. Gels were dried over night and exposed to phosphorescence screens (BioRad). Catalytic subunit activity filter binding assay. Compounds which elicited a decrease in fluorescence polarization were tested for the ability to inhibit DNA synthesis by Pol alone using the oligo-(dT)/poly-(dA) primer-template. Reaction mixtures (50 mM TrisHCl pH 7.5, 100 mM ammonium sulfate, 3 mM MgCl2, 0.1 mM EDTA, 1 mM DTT, 4% Glycerol, 40 μg ml^31 1 BSA, 100 μg ml^−1 primer/template, 50 μM α-^32P-TTP (111 TBq/mmol)) contained 200 fmol of HSV Pol and various amounts of each compound in a final volume of 25 μl. Reactions were carried out at 37° C. for 25 minutes and stopped by placing 10 μl of the reaction mix onto DE81 filter discs. After washes in sodium hydrogen phosphate, water and ethanol, they were counted in a liquid scintillation analyzer (Packard 1600 TR). Plaque reduction assay. Confluent monolayers of Vero (African green monkey kidney) cells in 12-well dishes were infected with herpes virus strain 17 dilutions such that each well received between 25 and 50 PFU. […]

[2] = molecular target: T2, Pol/UL42 long-chain DNA synthesis (HSV Pol + HSV MBP-UL42) (Human herpesvirus 1, UniProt P10226); experiment: DNA polymerase long-chain synthesis assay; type: biochemical, herpes simplex virus; details: for ability of UL42 to stimulate long-chain synthesis by Pol: FIG. 4, BP1, BP3, BP5 at 30 μM, BP9 at 100, 75, 50, 25 and 12 μM
T2 construct: in presence of the whole catalytic subunit; made in house; host or cells: UL42 fusion: E. coli BL21(de3)pLysS
T2 sequence (P10226 1-339): as the sequence (P10226 1-339, stated change not applied) above
Protocol: (§1) DNA polymerase long-chain synthesis assay. Compounds which elicited a decrease in the fluorescence polarization, when compared to control values, were tested for the ability to inhibit long-chain DNA synthesis via inhibition of polymerase subunit assembly [Digard et al. 1995; Bridges et al. 2001] using a poly-A template (Amersham Pharmacia) and an oligo-dT primer (Roche Molecular Biochemicals) on which Pol alone adds only a few bases. Reaction mixtures (50 mM Tris-HCl pH 7.5, 100 mM ammonium sulfate, 3 mM MgCl2, 0.1 mM EDTA, 1 mM DTT, 4% Glycerol, 40 ug ml^−1 BSA, 100 ug ml^−1 primer/template, 50 uM α-^32P-TTP (111 TBq/mmol; NEN Life Science products)), contained 200 fmol of HSV Pol ([Weisshart et al. 1994]), 400 fmol of HSV MBP-UL42 and varying amounts of compound in a final volume of 25 ul. Reactions were carried out at 37° C. for 5 minutes and stopped by adding 5 ul of alkaline loading buffer (2mM EDTA, 50mM NaOH, 2.5% glycerol, 0.025% bromocresol green) and placing them on ice and were then loaded onto an 4% alkaline agarose gel. Gels were dried over night and exposed to phosphorescence screens (BioRad). Catalytic subunit activity filter binding assay. Compounds which elicited a decrease in fluorescence polarization were tested for the ability to inhibit DNA synthesis by Pol alone using the oligo-(dT)/poly-(dA) primer-template. Reaction mixtures (50 mM TrisHCl pH 7.5, 100 mM ammonium sulfate, 3 mM MgCl2, 0.1 mM EDTA, 1 mM DTT, 4% Glycerol, 40 μg ml^31 1 BSA, 100 μg ml^−1 primer/template, 50 μM α-^32P-TTP (111 TBq/mmol)) contained 200 fmol of HSV Pol and various amounts of each compound in a final volume of 25 μl. Reactions were carried out at 37° C. for 25 minutes and stopped by placing 10 μl of the reaction mix onto DE81 filter discs. After washes in sodium hydrogen phosphate, water and ethanol, they were counted in a liquid scintillation analyzer (Packard 1600 TR). Plaque reduction assay. Confluent monolayers of Vero (African green monkey kidney) cells in 12-well dishes were infected with herpes virus strain 17 dilutions such that each well received between 25 and 50 PFU. Diluted virus was absorbed to cells in 2 ml Dulbecco's modified Eagle's medium containing 2.5% newborn calf serum, 100 U penicillin G ml^−1 and 100 ug streptomycin sulfate ml^−1 for 1 hour at 37° C. in a humidified CO2 incubator. After absorption, triplicate infected cultures were overlaid with 2% methyl cellulose in Dulbecco's modified Eagle's medium containing 5% newborn calf serum, 100 U penicillin G ml^−1, 100 ug streptomycin sulfate ml^−1 and various concentrations of the compounds which elicited a decrease in fluorescence polarization and incubated at 37° C. in a humidified CO2 incubator. Plaques were visualized by crystal violet staining at 2 to 3 days post infection and were counted on the following day [Coen et al. 1985]. Cytotoxicity assays. Vero cells (5×10^4 cells per well) were seeded into 96-well plates and treated with various concentrations of the compounds (which elicited a decrease in the fluorescence polarization) for 72 h in quadruplicates. […] In parallel, equally compound-treated cells were fixed by adding 95% ethanol, stained with crystal violet solution and washed. After addition of 100 ul acidified ethanol (EtOH:HCl=99:1) to dissolve the crystal violet, the plates were read in the plate reader (Wallac). Viral yield assay. Vero cells were seeded into 96-well (5×10^4 cells per well) tissue culture plates in 0.2 ml Dulbecco's modified Eagle's medium containing 2.5% newborn calf serum and 100 U penicillin G ml^−1. Cultures were inoculated with HSV strain 17 at an MOI of 5 PFU per cell. The virus inoculum was replaced after two hours with medium containing dilution series of test compounds and left for 24 hours. After two cycles of freeze-thawing, each drug dilution row was transferred to a freshly seeded 96-well plate and serially 1:3 diluted over the whole plate. After two days, plaques were stained and counted under a microscope [Pritchard et al. 1990]. […]

HSV Pol [3] = molecular target: T3, HSV Pol (Human herpesvirus 1, UniProt P04293); experiment: Catalytic subunit activity filter binding assay (Pol alone); type: biochemical, herpes simplex virus
T3 construct: in presence of the whole catalytic subunit
T3 sequence (P04293 whole entry N46K): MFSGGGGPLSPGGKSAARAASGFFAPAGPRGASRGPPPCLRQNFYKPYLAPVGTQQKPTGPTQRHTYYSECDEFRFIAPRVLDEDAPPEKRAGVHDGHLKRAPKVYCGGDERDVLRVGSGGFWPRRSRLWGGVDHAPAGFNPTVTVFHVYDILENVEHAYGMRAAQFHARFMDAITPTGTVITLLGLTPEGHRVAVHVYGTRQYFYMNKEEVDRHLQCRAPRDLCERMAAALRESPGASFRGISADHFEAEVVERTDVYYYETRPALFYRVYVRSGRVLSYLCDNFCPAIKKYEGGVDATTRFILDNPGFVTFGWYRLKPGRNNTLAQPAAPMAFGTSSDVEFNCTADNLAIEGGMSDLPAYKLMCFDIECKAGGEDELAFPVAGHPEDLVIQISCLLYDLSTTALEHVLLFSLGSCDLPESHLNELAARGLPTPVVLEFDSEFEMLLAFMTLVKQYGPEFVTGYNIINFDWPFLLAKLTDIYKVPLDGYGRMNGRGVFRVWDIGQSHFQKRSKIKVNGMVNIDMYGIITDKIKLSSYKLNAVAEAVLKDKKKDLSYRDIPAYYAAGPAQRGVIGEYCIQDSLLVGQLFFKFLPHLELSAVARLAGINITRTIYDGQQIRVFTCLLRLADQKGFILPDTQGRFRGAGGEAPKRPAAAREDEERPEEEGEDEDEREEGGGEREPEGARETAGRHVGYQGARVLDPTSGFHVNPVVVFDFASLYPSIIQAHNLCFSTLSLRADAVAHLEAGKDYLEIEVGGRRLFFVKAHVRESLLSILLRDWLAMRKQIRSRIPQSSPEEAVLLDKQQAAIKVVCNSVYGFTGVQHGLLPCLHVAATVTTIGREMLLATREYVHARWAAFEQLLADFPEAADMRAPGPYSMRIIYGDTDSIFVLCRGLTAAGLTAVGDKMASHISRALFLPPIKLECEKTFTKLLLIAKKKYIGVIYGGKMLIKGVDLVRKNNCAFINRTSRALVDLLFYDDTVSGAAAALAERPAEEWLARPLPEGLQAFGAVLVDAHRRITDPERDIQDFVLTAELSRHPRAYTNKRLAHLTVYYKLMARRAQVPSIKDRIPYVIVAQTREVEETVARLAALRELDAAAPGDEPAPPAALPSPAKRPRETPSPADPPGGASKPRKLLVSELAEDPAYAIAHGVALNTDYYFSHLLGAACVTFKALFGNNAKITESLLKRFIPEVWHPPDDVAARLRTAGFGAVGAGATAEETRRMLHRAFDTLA
Protocol: as §1

HSV Pol [4] = molecular target: T4, HSV Pol (Human herpesvirus 1, UniProt P04293, N46K); experiment: as above; type: biochemical, herpes simplex virus; details: at higher compound concentrations, FIG. 5
T4 construct: in presence of the whole catalytic subunit
T4 sequence (P04293 whole entry N46K): as above
Protocol: as §1

[5] = Cytotoxicity assay (XTT / crystal violet); type: cell-based, African green monkey; details: monkey; for CC50 at 72 h: Vero cells, read-out: Toxicity IC50
Protocol: as §1, with “Vero cells were seeded into 96-well (5×10^4 cells per well) tissue culture plates in 0.2 ml Dulbecco's modified Eagle's medium containing 2.5% newborn calf serum and 100 U penicillin G ml^−1. Cultures were inoculated with HSV strain 17 at an MOI of 5 PFU per cell. The virus inoculum was replaced after two hours with medium containing dilution series of test compounds and left for 24 hours. After two cycles of freeze-thawing, each drug dilution row was transferred to a freshly seeded 96-well plate and serially 1:3 diluted over the whole plate.” left out

HSV strain 17 = experiment: Viral yield assay; type: cell-based, herpes simplex virus; details: Vero cells, MOI of 5, 24 h; read-out: ED90 viral yield reduction
Protocol: (§2) DNA polymerase long-chain synthesis assay. Compounds which elicited a decrease in the fluorescence polarization, when compared to control values, were tested for the ability to inhibit long-chain DNA synthesis via inhibition of polymerase subunit assembly [Digard et al. 1995; Bridges et al. 2001] using a poly-A template (Amersham Pharmacia) and an oligo-dT primer (Roche Molecular Biochemicals) on which Pol alone adds only a few bases. […] Compounds which elicited a decrease in fluorescence polarization were tested for the ability to inhibit DNA synthesis by Pol alone using the oligo-(dT)/poly-(dA) primer-template. […] After washes in sodium hydrogen phosphate, water and ethanol, they were counted in a liquid scintillation analyzer (Packard 1600 TR). […] After absorption, triplicate infected cultures were overlaid with 2% methyl cellulose in Dulbecco's modified Eagle's medium containing 5% newborn calf serum, 100 U penicillin G ml^−1, 100 ug streptomycin sulfate ml^−1 and various concentrations of the compounds which elicited a decrease in fluorescence polarization and incubated at 37° C. in a humidified CO2 incubator. Plaques were visualized by crystal violet staining at 2 to 3 days post infection and were counted on the following day [Coen et al. 1985]. […] After addition of 100 ul acidified ethanol (EtOH:HCl=99:1) to dissolve the crystal violet, the plates were read in the plate reader (Wallac). […]

herpes virus strain 17 = experiment: Plaque reduction assay; type: cell-based, herpes simplex virus; details: Vero cells, data not shown
Protocol: as §2

[6] = test system: Pol/UL42 long-chain DNA synthesis (HSV Pol + HSV MBP-UL42); details: literature values [Digard et al. 1995; Bridges et al. 2000]; read-out: IC50 for specific inhibition of UL42 stimulated long-chain DNA synthesis; cited from earlier work

| Molecule | IC50 [1] | dose dependent change in the FP signal [1] | IC50 [2] | ability of UL42 to stimulate long-chain synthesis by Pol [2] | IC50 (HSV Pol [3]) | Pol activity in absence of UL42 (HSV Pol [4]) | CC50 at 72 h [5] | CC50 ([5]; vero cells, Vero cell line, read-out: 50% toxic dose) | EC90 (HSV strain 17) | plaque formation (herpes virus strain 17) | IC50 [6] |
| --- | --- | --- | --- | --- | --- | --- | --- | --- | --- | --- | --- |
| Cc1ccc(C(C)C)cc1OCC(=O)NN=Cc1cc([N+](=O)[O-])ccc1O [BP1] | 35 µM | dose dependent change | 25 µM | greatly reduced | > 100 µM | did not show a significant change | 20 µM |  |  |  |  |
| CC(C)C(C(=O)O)N1C(=O)/C(=C/c2ccc(Cl)cc2Cl)SC1=S (stereo not drawn) [BP3] | 12 µM | dose dependent change | 30 µM | greatly reduced | 25 µM | significantly reduced | 200 µM |  |  |  |  |
| O=C(Nc1cccc2nsnc12)c1cc(Br)ccc1NS(=O)(=O)c1ccc(Cl)cc1 [BP5] | 15 µM | dose dependent change | 26 µM | greatly reduced | > 100 µM | did not show a significant change | 50 µM | 50 µM | 400 nM | completely abolish |  |
| CSCCC(C(=O)O)N1C(=O)/C(=C/c2ccc(Cl)cc2Cl)SC1=S (stereo not drawn) [BP9] | 48 µM | dose dependent change | 25 µM | greatly reduced | 25 µM | significantly reduced | 200 µM |  |  |  |  |
| CSCC[C@H](NC(=O)[C@H](CCCNC(=N)N)NC(=O)[C@H](CCCNC(=N)N)NC(=O)[C@@H](NC(=O)[C@H](CCC(=O)O)NC(=O)[C@H](CCC(=O)O)NC(=O)[C@H](C)NC(=O)[C@@H](NC(=O)[C@H](C)NC(=O)CNC(=O)[C@H](C)NC(=O)CNC(=O)[C@@H](NC(=O)[C@H](C)NC(=O)CNC(=O)[C@H](Cc1ccccc1)NC(=O)CNC(=O)[C@H](C)NC(=O)[C@@H](NC(=O)[C@H](CCCNC(=N)N)NC(=O)[C@H](CC(C)C)NC(=O)[C@H](CCCNC(=N)N)NC(=O)[C@H](C)NC(=O)[C@H](C)NC(=O)[C@@H](NC(=O)[C@H](CC(=O)O)NC(=O)[C@H](CC(=O)O)NC(C)=O)C(C)C)[C@@H](C)O)C(C)C)[C@@H](C)O)[C@@H](C)O)C(=O)N[C@@H](CC(C)C)C(=O)N[C@@H](Cc1c[nH]cn1)C(=O)N[C@@H](CCCNC(=N)N)C(=O)N[C@@H](C)C(=O)N[C@@H](Cc1ccccc1)C(=O)N[C@@H](CC(=O)O)C(=O)N[C@H](C(=O)N[C@@H](CC(C)C)C(=O)N[C@@H](C)C(N)=O)[C@@H](C)O [peptide A] |  |  |  |  |  |  |  |  |  |  | 3 µM |
| ATAEEETRRMLHRAFDTLA [peptide E, Ac-Ala-Thr-Ala-Glu-Glu-Glu-Thr-Arg-Arg-Met-Leu-His-Arg-Ala-Phe-Asp-Thr-Leu-Ala-NH2] |  |  |  |  |  |  |  |  |  |  | 11 µM |
